Several values for one entry are separate records, joined by “and”; a condition that tells them apart may be missing. Equal entries are not always repeated.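 Compound exposure: 48 hours, 5 concentrations, 96-well plates. The concentration for 50% growth inhibition is given as GI50. The concentration for full growth arrest is given as TGI.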
What was measured:
Experiment in all cases: NCI tumour cell line growth inhibition, 48 h
SK-MEL-2 melanoma = test system: SK-MEL-2 melanoma
OVCAR-8 ovarian = test system: OVCAR-8 ovarian
SNB-19 CNS = test system: SNB-19 CNS
SF-295 CNS = test system: SF-295 CNS
TK-10 renal = test system: TK-10 renal
SF-268 CNS = test system: SF-268 CNS
SN12C renal = test system: SN12C renal
NCI-H522 lung = test system: NCI-H522 lung
HOP-92 NSCLC = test system: HOP-92 NSCLC
MALME-3M melanoma = test system: MALME-3M melanoma

Structure (SMILES) | TGI (SK-MEL-2 melanoma) [µM] | TGI (OVCAR-8 ovarian) | TGI (SNB-19 CNS) [µM] | TGI (SF-295 CNS) [µM] | TGI (TK-10 renal) [µM] | TGI (SF-268 CNS) [µM] | TGI (SN12C renal) | TGI (NCI-H522 lung) | TGI (HOP-92 NSCLC) [µM] | GI50 (SK-MEL-2 melanoma) [µM] | GI50 (OVCAR-8 ovarian) | GI50 (SNB-19 CNS) [µM] | GI50 (SF-295 CNS) | GI50 (TK-10 renal) [µM] | GI50 (SF-268 CNS) [µM] | GI50 (SN12C renal) | GI50 (NCI-H522 lung) | GI50 (HOP-92 NSCLC) [µM] | TGI (MALME-3M melanoma) [µM] | GI50 (MALME-3M melanoma) [µM]
CC(C(N)C(=O)NC(C(=O)O)C1OC(n2ccc(=O)[nH]c2=O)C(O)C1O)C(O)c1ccc(O)cn1 (stereo not given) | > 100 | > 100 µM | > 100 | > 100 | > 100 | > 100 | > 100 µM | > 100 µM | > 100 | – | – | – | – | – | – | – | – | – | – | –
CC(=O)O[C@H](C[C@H](C(C)C)N(C)C(=O)[C@@H](NC(=O)[C@H]1CCCN1C)C(C)C)c1nc(C(=O)N[C@@H](Cc2ccccc2)C[C@H](C)C(=O)O)c(C)s1 | > 16.7 | > 16.7 µM | > 16.7 | > 16.7 | > 16.7 | > 16.7 | > 16.7 µM | < 0.00167 µM | > 16.7 | < 0.00167 | 0.0033 µM | < 0.00167 | < 0.00167 µM | > 16.7 | < 0.00167 | < 0.00167 µM | < 0.00167 µM | 12.4 | – | –
O=C(CCn1[nH]c(=O)c(Cl)c(Cl)c1=O)NNC(=O)C[n+]1ccccc1 | > 100 | > 100 µM | > 100 | > 100 | > 100 | > 100 | > 100 µM | > 100 µM | – | – | – | – | – | – | – | – | – | – | > 100 | –
Nc1ccc(-c2cccs2)cc1NC(=O)c1ccc(CCCC(=O)Nc2ccc(C3CC3N)cc2)cc1 (stereo not given) | > 100 | 4.48 µM | – | – | 39.2 | 5.47 | – | – | > 100 | 7.28 | 1.65 µM | – | – | 2.44 | 2.33 | – | – | 11 | 3.77 | 1.06
CSc1snc2sc3c(Cl)nnnc3c12 | 27.7 | 21 µM | 30.1 | 32 | 30.9 | 33.2 | 28.7 µM | – | – | – | – | – | – | – | – | – | – | – | 29.3 | –
O=C(CC(=O)c1cccc2ccccc12)C(=O)NC1C2CC3CC(C2)CC1C3 (stereo not given) | – | > 100 µM | > 100 | > 100 | > 100 | > 100 | > 100 µM | > 100 µM | > 100 | – | – | – | – | – | – | – | – | – | > 100 | –
CCCN(CCC)c1ccc(/C=N/NC(=O)c2cccnc2)c(OC)c1 | – | > 100 µM | > 100 | 77.8 | 90.1 | 88.7 | > 100 µM | 56.9 µM | 61.8 | – | 29.9 µM | 41.6 | 19 µM | 28.7 | 26 | 36.1 µM | 20.3 µM | 13.4 | 50.4 | 18.8
CCCCCCCCCCCCCCCCCCOCC(CCP(=O)(CP(=O)(O)O)Oc1ccccc1)OCCCCCCCCCCCCCCCCCC (stereo not given) | – | > 100 µM | > 100 | > 100 | > 100 | > 100 | > 100 µM | > 100 µM | > 100 | – | – | – | – | – | – | – | – | – | > 100 | –
Nc1n[n+](-c2ccccc2)no1 | – | > 100 µM | > 100 | > 100 | > 100 | > 100 | > 100 µM | > 100 µM | 92.9 | – | – | – | – | – | – | – | – | – | > 100 | –
CC(=O)O[C@@]1(C)[C@@H](C)C(=O)O[C@@H]2CCN3CC=C(COC(=O)[C@]1(C)O)[C@H]23 | > 100 | > 100 µM | > 100 | – | > 100 | > 100 | – | > 100 µM | > 100 | – | – | – | – | – | – | – | – | – | > 100 | –
CCOC(=O)c1cnc2sc3ccc4ccccc4c3n2c1=O | > 100 | > 100 µM | > 100 | > 100 | > 100 | > 100 | > 100 µM | – | > 100 | – | – | – | – | – | – | – | – | – | > 100 | –
CO/N=C(\COc1ccc2oc(-c3ccccc3)cc(=O)c2c1)c1ccc(OC)cc1 | > 100 | > 100 µM | – | 48.9 | > 100 | – | 44.7 µM | 37.4 µM | – | 31 | 31.8 µM | – | 21.7 µM | 41.4 | – | 19.3 µM | 17.8 µM | – | 63.8 | 24.8
O=C1c2ccccc2-c2c1c1c(O)cccc1n2Cc1ccccn1 | > 100 | > 100 µM | > 100 | > 100 | 93.2 | > 100 | > 100 µM | > 100 µM | > 100 | > 100 | 74 µM | > 100 | 23.6 µM | 28.9 | 83.5 | 63.3 µM | > 100 µM | 17.7 | – | –
Cc1[nH]c(=O)[nH]c1C(=O)c1ccc(-n2ccnc2)cc1 | > 100 | > 100 µM | > 100 | > 100 | – | > 100 | > 100 µM | > 100 µM | – | – | – | – | – | – | – | – | – | – | > 100 | –
CC(C)=CCC/C(C)=C\CCC1(C)OC(=O)C2CC21 (stereo not given) | > 100 | > 100 µM and 45.5 µM | > 100 | > 100 | > 100 | > 100 | > 100 µM and 64.2 µM | > 100 µM and 47.1 µM | – | – | 71.6 µM and 20.3 µM | – | > 100 µM and 49.8 µM | – | – | > 100 µM and 26.4 µM | 52.4 µM and 19.2 µM | – | > 100 | –
CCc1cc(CCC(=O)Nc2ccccc2[N+](=O)[O-])[nH]c(=S)n1 | > 100 | > 100 µM | > 100 | > 100 | > 100 | > 100 | – | – | > 100 | – | – | – | – | – | – | – | – | – | – | –
C/C(O)=C(\C#N)C(=O)Nc1ccc(C(F)(F)F)cc1 | > 100 | > 100 µM | > 100 | – | > 100 | > 100 | > 100 µM | – | > 100 | 73.2 | 13.5 µM | 24.5 | – | > 100 | 15 | 29.1 µM | – | 13.4 | > 100 | 62.8
C=C1C(OC(=O)/C=C/c2ccccc2)CC(OC(C)=O)C2(C)C1CC1CC(OC(C)=O)C(C)=C(C(OC(C)=O)C2OC(C)=O)C1(C)C (stereo not given) | – | > 100 µM | > 100 | > 100 | > 100 | > 100 | > 100 µM | > 100 µM | > 100 | – | – | – | – | – | – | – | – | – | > 100 | –
O=C(O/N=C1/CCC/C1=C\c1ccccc1)c1ccc(Cl)c(Cl)c1 | > 100 | > 100 µM | – | > 100 | > 100 | > 100 | > 100 µM | > 100 µM | > 100 | – | – | – | – | – | – | – | – | – | > 100 | –
NS(=O)(=O)c1ccc(N(/C=C/C(=O)C(F)(F)F)Cc2ccc(Cl)cc2)cc1 | 62 | 63.1 µM | > 100 | > 100 | 55.8 | > 100 | 56.2 µM | 38.4 µM | 40.9 | 27.2 | 24.3 µM | 41.9 | 35.1 µM | 23.5 | 74.3 | 21.1 µM | 12.6 µM | 16.1 | – | –
Cc1cccc2c1CCC21OC(=O)c2c1ccc1ccccc21 (stereo not given) | 62.3 | > 100 µM | > 100 | > 100 | > 100 | > 100 | > 100 µM | > 100 µM | – | – | – | – | – | – | – | – | – | – | 75.5 | –
N#Cc1cc(S(=O)(=O)Nc2nnc(-c3ccccc3)c(-c3ccccc3)n2)c(SCc2ccccc2)cc1Cl | > 100 | 56.7 µM | > 100 | 46.5 | 46.2 | > 100 | 47 µM | > 100 µM | 58.7 | 41.8 | 28.5 µM | 35.1 | 24.8 µM | 22.9 | 29.2 | 20.3 µM | 44.5 µM | 18.4 | – | –
O=C(Nc1cccc(Cl)c1)c1cccc(NC2=C(Cl)C(=O)N(Cc3ccccc3)C2=O)c1 | 68.6 | > 100 µM | > 100 | > 100 | – | 94.4 | 56.9 µM | 53 µM | > 100 | 26.7 | 56.4 µM | > 100 | 44.1 µM | – | 25.5 | 2.62 µM | 18.8 µM | 16.1 | – | –
O=NNc1ccc(Sc2ccc(NN=O)cn2)nc1 | – | > 100 µM | > 100 | > 100 | > 100 | > 100 | > 100 µM | > 100 µM | – | – | – | – | – | – | – | – | – | – | – | –
CN(C)CCNC(=O)Cn1cnc2cccc([N+](=O)[O-])c2c1=O | > 100 | – | > 100 | > 100 | > 100 | > 100 | > 100 µM | > 100 µM | – | – | – | – | – | – | – | – | – | – | > 100 | –
COc1cc(-c2csc(NC(=O)Nc3ccc(C(F)(F)F)cc3)n2)cc(OC)c1OC | 5.81 | 10.5 µM | 12.3 | 4.35 | – | 13.7 | 8.89 µM | 5.88 µM | 4.73 | 2.43 | 2.97 µM | 2.69 | 1.66 µM | – | 2.92 | 2.62 µM | 1.9 µM | 1.61 | 4.94 | 1.85
CC(C)(C)c1ccc(OCCOCCOc2ccc(C(C)(C)C)cc2S(=O)(=O)Nc2ccc([N+](=O)[O-])cc2)c(S(=O)(=O)Nc2ccc([N+](=O)[O-])cc2)c1 | > 100 | > 100 µM | > 100 | > 100 | > 100 | > 100 | > 100 µM | – | 72.3 | – | – | – | – | – | – | – | – | – | > 100 | –

Source: PubChem BioAssay (NCI)
